Measured values taken from ChEMBL document CHEMBL3860026, “Depsidones from Lichens as Natural Product Inhibitors of M-Phase Phosphoprotein 1, a Human Kinesin Required for Cytokinesis” (J Nat Prod, 2016).

What was measured:
[1] = Cytotoxicity against human K562 cells assessed as growth inhibition after 72 hrs by Alamar Blue assay; assay type: functional, cell-based; details: K562, 72 h
[2] = Chemical stability of the compound at 5 uM after 15 to 120 mins by LC-MS/MS method; assay type: physicochemical
[3] = biological target: T1, Chromosome-associated kinesin KIF4A (Homo sapiens) (UniProt O95239); test: Inhibition of microtubule-stimulated ATPase activity of human Kif4A at 200 uM by pyruvate kinase/lactate dehydrogenase-linked assay
T1 sequence (whole entry): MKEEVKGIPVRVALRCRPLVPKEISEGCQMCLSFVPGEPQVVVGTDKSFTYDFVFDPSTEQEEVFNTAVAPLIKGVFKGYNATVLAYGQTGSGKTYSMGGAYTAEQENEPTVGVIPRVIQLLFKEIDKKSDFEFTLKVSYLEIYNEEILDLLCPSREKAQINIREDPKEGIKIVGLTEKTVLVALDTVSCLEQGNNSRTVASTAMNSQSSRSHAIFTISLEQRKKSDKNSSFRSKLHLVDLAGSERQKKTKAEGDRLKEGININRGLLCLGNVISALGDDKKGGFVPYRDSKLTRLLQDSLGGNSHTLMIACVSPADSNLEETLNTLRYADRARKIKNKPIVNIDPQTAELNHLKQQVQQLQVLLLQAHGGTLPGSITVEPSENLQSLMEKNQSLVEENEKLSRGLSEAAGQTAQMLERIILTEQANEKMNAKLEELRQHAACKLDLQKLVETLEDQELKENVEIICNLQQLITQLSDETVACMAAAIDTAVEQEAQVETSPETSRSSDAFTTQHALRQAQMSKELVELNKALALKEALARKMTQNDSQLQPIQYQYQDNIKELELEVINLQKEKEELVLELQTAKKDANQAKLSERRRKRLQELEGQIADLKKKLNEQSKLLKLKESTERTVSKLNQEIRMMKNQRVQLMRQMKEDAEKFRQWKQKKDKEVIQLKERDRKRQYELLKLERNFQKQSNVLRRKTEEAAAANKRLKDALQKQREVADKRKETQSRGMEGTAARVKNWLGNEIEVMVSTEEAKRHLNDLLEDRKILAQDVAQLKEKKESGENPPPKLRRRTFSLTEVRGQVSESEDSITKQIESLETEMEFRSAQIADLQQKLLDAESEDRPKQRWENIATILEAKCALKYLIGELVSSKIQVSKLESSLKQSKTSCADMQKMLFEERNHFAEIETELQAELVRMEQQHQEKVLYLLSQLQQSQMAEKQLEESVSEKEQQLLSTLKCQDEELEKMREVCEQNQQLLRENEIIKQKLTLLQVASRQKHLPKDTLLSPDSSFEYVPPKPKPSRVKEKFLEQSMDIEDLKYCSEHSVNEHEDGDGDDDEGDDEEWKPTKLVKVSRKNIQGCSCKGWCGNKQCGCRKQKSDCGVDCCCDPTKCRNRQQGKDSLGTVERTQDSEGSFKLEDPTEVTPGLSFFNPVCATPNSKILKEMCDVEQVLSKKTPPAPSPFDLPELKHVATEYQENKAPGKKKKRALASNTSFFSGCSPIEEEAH

[4] = biological target: T1, Chromosome-associated kinesin KIF4A (Homo sapiens); test: Inhibition of basal ATPase activity of human Kif4A at 200 uM by pyruvate kinase/lactate dehydrogenase-linked assay
[5] = Intrinsic clearance in human liver microsomes assessed per mg of protein at 3 uM after 5 to 60 mins by LC-MS/MS method; assay type: ADME; details: read-out: CLH

Stability [2]: Stable
inhibition [3]: 40%
inhibition [4]: 40%
microsomal CLint at 3 µM [5]: 310 µL/min/mg
Compound: CCCCCC(=O)Cc1cc(O)cc2c1C(=O)Oc1cc(O)c(C(=O)O)c(CCCCC)c1O2 [PHYSODIC ACID]
EC50 [1]: 32.6 µM
